Test results taken from US9024012B2, “Methods to treat mixtures of glycosides to obtain one or more of these glycosides in more pure form” (Cargill, Incorporated, priority 2010, dated 2015).

Key:
[1] = type: physicochemical
Procedure: Without wishing to be bound, it is believed that separation is more favored at higher temperatures at least in part due to factors including conformational changes as well as solubility differences that are a function of temperature. At room temperature, the solubility of Reb B in a 94 weight percent ethanol solution saturated with Reb A is about 0.3 g per 100 g of solvent, and the solubility of Reb D is about 0.01 g per 100 g. At 100° C., concentrations of Reb D as high as 0.2 g/100 g are observed, and concentrations of Reb B as high as 0.5 g/100 g are observed. The solubility of Reb A in 94 wt % ethanol varies to a much smaller extent.

[2] = relative to sucrose; background statement; cited from earlier work

concentrations observed in solution [1] [g/100 g]	solubility [1]	Molecule	sweetness, times the sweetness of sucrose [2]
≤ 0.2	about 0.01 g per 100 g of solvent	C=C1C[C@@]23CC[C@H]4[C@@](C)(CCC[C@@]4(C)C(=O)O[C@@H]4O[C@H](CO)[C@@H](O)[C@H](O)[C@H]4O[C@@H]4O[C@H](CO)[C@@H](O)[C@H](O)[C@H]4O)[C@@H]2CC[C@]1(O[C@@H]1O[C@H](CO)[C@@H](O)[C@H](O[C@@H]2O[C@H](CO)[C@@H](O)[C@H](O)[C@H]2O)[C@H]1O[C@@H]1O[C@H](CO)[C@@H](O)[C@H](O)[C@H]1O)C3 [Reb D, rebaudioside D]	
		C=C1C[C@@]23CC[C@H]4[C@@](C)(CCC[C@@]4(C)C(=O)O[C@@H]4O[C@H](CO)[C@@H](O)[C@H](O)[C@H]4O)[C@@H]2CC[C@]1(O[C@@H]1O[C@H](CO)[C@@H](O)[C@H](O[C@@H]2O[C@H](CO)[C@@H](O)[C@H](O)[C@H]2O)[C@H]1O[C@@H]1O[C@H](CO)[C@@H](O)[C@H](O)[C@H]1O)C3 [Rebaudioside A, rebaudioside A]	250-450 times
≤ 0.5	about 0.3 g per 100 g of solvent	rebaudioside B [Reb B]	
